The results in this text go back to ChEMBL document CHEMBL1145559, “Design, synthesis and in vitro antiprotozoal activity of benzimidazole-pentamidine hybrids” (Bioorg Med Chem Lett, 2008).

The test system of test [1] is Plasmodium berghei. Briefly: Antiprotozoal activity against Plasmodium berghei at 100 uM. The class given is functional.
Another test relates to Giardia intestinalis. Briefly: Antiprotozoal activity against Giardia lamblia. Conditions: Giardia duodenalis. The class given is functional, organism-based.
In a further test the test system is Trichomonas vaginalis. The test can be described thus: Antiprotozoal activity against Trichomonas vaginalis. The class given is functional, organism-based.
The next test relates to Entamoeba histolytica. Briefly: Antiprotozoal activity against Entamoeba histolytica. The class given is functional, organism-based.
The test system of another test is Leishmania mexicana. Briefly: Antiprotozoal activity against Leishmania mexicana. The class given is functional, organism-based.
Test [2] deals with Plasmodium berghei. Briefly: Antiprotozoal activity against Plasmodium berghei. It counts as functional, organism-based.
For test [3], the system named is Plasmodium berghei. Briefly: Antiprotozoal activity as cell damage against Plasmodium berghei. The class given is functional, organism-based.

The source made the active and inactive calls. The rule behind the calls is not given here.

For the molecule `COc1cc(-c2nc3cc(C)ccc3[nH]2)ccc1OCCCCCOc1ccc(-c2nc3cc(C)ccc3[nH]2)cc1OC`, the result in the test with Plasmodium berghei [1] was inactive. Further, the IC50 in the test with Giardia intestinalis was 0.372 µM; in the test with Trichomonas vaginalis, 1.02 µM; with Entamoeba histolytica it was 4.5 µM; in the test with Leishmania mexicana it was more than 50 µM.
Consider `COc1ccc2[nH]c(-c3ccc(OCCCCCOc4ccc(-c5nc6cc(OC)ccc6[nH]5)cc4)cc3)nc2c1`, for which the IC50 in the test on Giardia intestinalis was 0.435 µM; with Trichomonas vaginalis it was 0.164 µM; in the test on Plasmodium berghei [2] it was 34.6 µM; in the test on Entamoeba histolytica, 0.109 µM; in the test on Leishmania mexicana, 0.712 µM.
The corresponding values for `COc1cc(-c2nc3cc([N+](=O)[O-])ccc3[nH]2)ccc1OCCCCCOc1ccc(-c2nc3cc([N+](=O)[O-])ccc3[nH]2)cc1OC` are 3.4 µM, 0.794 µM, 25.9 µM, 12.1 µM and 16.8 µM.
For the molecule `COc1ccc2[nH]c(-c3ccc(OCCCCCOc4ccc(-c5nc6cc(OC)ccc6[nH]5)cc4OC)c(OC)c3)nc2c1`, the IC50 is 5.19 µM in the test with Giardia intestinalis; 6.29 µM with Trichomonas vaginalis; 24 µM in the test on Plasmodium berghei [2]; 0.284 µM in the test on Entamoeba histolytica; more than 50 µM in the test with Leishmania mexicana.
In the test on Plasmodium berghei [1], `c1ccc2[nH]c(-c3ccc(OCCCCCOc4ccc(-c5nc6ccccc6[nH]5)cc4)cc3)nc2c1` yielded an inhibition at 100 µM of 37%. Further, the half-inhibitory concentration (IC50) is 1.84 µM with Giardia intestinalis; 3.18 µM in the test with Trichomonas vaginalis; 100 µM in the test with Plasmodium berghei [2]; 0.436 µM in the test with Entamoeba histolytica; 1.06 µM in the test with Leishmania mexicana.
For the molecule `COc1cc(-c2nc3ccccc3[nH]2)ccc1OCCCCCOc1ccc(-c2nc3ccccc3[nH]2)cc1OC`, the IC50 was 12.7 µM with Giardia intestinalis; 6.15 µM in the test on Trichomonas vaginalis; 166 µM with Plasmodium berghei [2]; 5.19 µM with Entamoeba histolytica; more than 50 µM with Leishmania mexicana.
As to `O=[N+]([O-])c1ccc2[nH]c(-c3ccc(OCCCCCOc4ccc(-c5nc6cc([N+](=O)[O-])ccc6[nH]5)cc4)cc3)nc2c1`, the inhibition at 100 µM with Plasmodium berghei [1] is 46%. In addition, the half-maximal inhibitory concentration (IC50) in the test with Giardia intestinalis is 7.41 µM; with Trichomonas vaginalis it was 3.58 µM; with Plasmodium berghei [2], 100 µM; in the test on Entamoeba histolytica, 10.2 µM; in the test with Leishmania mexicana it was more than 50 µM.
`Cc1ncc([N+](=O)[O-])n1CCO` [METRONIDAZOLE]: the values for the concentration for half-maximal inhibition (IC50) in the test with Giardia intestinalis, in the test with Trichomonas vaginalis and in the test on Entamoeba histolytica were 1.29 µM, 0.286 µM and 0.771 µM, respectively.
In the case of `COc1cc(-c2nc3cc(C(F)(F)F)ccc3[nH]2)ccc1OCCCCCOc1ccc(-c2nc3cc(C(F)(F)F)ccc3[nH]2)cc1OC`, the IC50 with Plasmodium berghei [2] was 63.1 µM; in the test on Leishmania mexicana it was more than 50 µM.
Consider `N=C(N)c1ccc(OCCCCCOc2ccc(C(=N)N)cc2)cc1` [PENTAMIDINE], for which the 50% inhibitory concentration (IC50) worked out at 4.08 µM in the test with Giardia intestinalis, 3.81 µM in the test with Trichomonas vaginalis, 11.8 µM in the test on Entamoeba histolytica and 9.57 µM with Leishmania mexicana. Moreover, in the test on Plasmodium berghei [3], the result was Active.
As for `Cc1ccc2[nH]c(-c3ccc(OCCCCCOc4ccc(-c5nc6cc(C)ccc6[nH]5)cc4)cc3)nc2c1`, 100 µM produced 43% inhibition with Plasmodium berghei [1]. The IC50 turned out to be 4.89 µM with Giardia intestinalis; 4.16 µM with Trichomonas vaginalis; 100 µM in the test on Plasmodium berghei [2]; 0.153 µM in the test with Entamoeba histolytica; 0.368 µM in the test with Leishmania mexicana.
For `FC(F)(F)c1ccc2[nH]c(-c3ccc(OCCCCCOc4ccc(-c5nc6cc(C(F)(F)F)ccc6[nH]5)cc4)cc3)nc2c1`, the IC50 in the test on Giardia intestinalis was 9.6 µM; in the test with Trichomonas vaginalis, 4.96 µM; in the test with Plasmodium berghei [2], 6.53 µM; with Entamoeba histolytica, 7.29 µM; in the test with Leishmania mexicana, more than 50 µM.

By IC50 is commonly meant the concentration that gives 50% inhibition. Low readings indicate greater potency in that assay, high ones weaker potency in that assay. The inhibition is the percentage by which the read-out fell short of the control. Low values mean little suppression, high ones strong suppression.
